Values after ≈ are worked out from the molar mass of the structure shown. Values joined by “and” are separate entries in the source; they are usually repeats but may differ in a detail not shown here. Identical values can stand only once. Counter-ions that a name gives are not always drawn. Like-named read-outs stand apart in the source and are kept apart here.

The test system of series [1] is P. Ovale. The series can be described thus: Microbiological activity against P. Ovale, agar serial dilution (Table 1). The series is classed as cell-based, P. Ovale (ATCC 14521). As to conditions: for MIC: 96 h, read-out: Minimum Inhibitory Concentration (MIC) against P. Ovale. The method, then: The microbiological activities of the zinc and sodium complexes of 2-mercapto-quinoline-N-oxide (MQNO) against P. Ovale were compared with the sodium and zinc salts of pyridinethione-N-oxide (PTO) and other conventional soapbacteriostats. P. Ovale is a microorganism associated with dandruff conditions.
Equal amounts of the respective compounds were dissolved in methyl cellosolve, dimethylformamide, or water, serially diluted in ten fold sequence and incorporated into plates of molten Agar. The plates were allowed to solidify, were then inoculated with P. Ovale (ATCC 14521), incubated at 27°C. for 4 days and inspected for growth.

In series [2] the test system is Proteus vulgaris. The series can be described thus: Antimicrobial spectrum, MIC, Proteus vulgaris (Table 3). The series is classed as cell-based. As to conditions: ATCC9920, ATCC 9920, Nutrient Agar, 37°C, ten fold dilutions, read-out: Minimum Inhibitory Concentration, Proteus vulgaris. The method, then: (§1) Equivalent amounts of ZnMQNO, NaMQNO, ZnPTO and NaPTO were solubilized in methyl cellosolve (PTO) and dimethyl formamide (MQNO). Ten fold serial dilutions were prepared employing additional solvent and equal aliquots pipetted into molten (50°C) agar support media. Nutrient Agar was employed for all bacteria and Mycological Agar was employed for the fungi and dermatophyte. After preparing pour plates for the bacteria and streaks for the fungi and dermatophyte, the plates were incubated (37°C and 27°C, respectively) and observed for growth.

Series [3] deals with Aspergillus oryzae. Description: Antimicrobial spectrum, MIC, Aspergillus oryzae (Table 3). The series is classed as cell-based, Aspergillus oryzae ATCC 10196. To be noted: for MIC: Aspergillus oryzae. As for the experimental part: as §1
The test system of series [4] is Staph. aureus. The series can be described thus: Antimicrobial spectrum, MIC, Staph. aureus (Table 3). As to conditions: Staphylococcus aureus. The series is classed as cell-based, Staph. aureus ATCC 6538. As for the experimental part: as §1
For series [5], the system named is Gram-positive and negative bacteria, fungi and dermatophytes. The series can be described thus: Antimicrobial spectrum, overall (Example 8). The series is classed as cell-based. As to conditions: in words, from Table 3. As for the experimental part: as §1
A short description of series [6]: Relative solubility (statement in words). The series is classed as physicochemical. To be noted: explains smaller zone size in agar.
In series [7] the test system is P. Ovale. Description: Substantivity/activity in calf skin, zone of inhibition against P. Ovale (Table 2). More on the design: unit not given here. To be noted: 2% in shampoo, replicate plates 1-4, 27°C, 4 days. The series is classed as cell-based. From the text:
The substantivity/activity of the zinc complex of 2-mercapto-quinoline-N-oxide of the invention in calf-skin were compared with the zinc salt of pyridinethione-N-oxide in the following manner. ZnMQNO and ZnPTO were incorporated by blending on a 3-roll mill in amounts of 1% and 2% by weight into a non-bacteriostatic paste shampoo of the following composition.
Calf skin specially prepared by the method of Vinson IN VITRO TESTS FOR MEASURING ANTIBACTERIAL ACTIVITY OF TOILET SOAP AND DETERGENT BARS by L. J. Vinson, E. L. Ambye, A. G. Bennet, Journal of Pharmaceutical Sciences, Vol. 50, P. 10, October, 1961.
0.3 g of shampoo was applied in each instance to 12.5 sq. in. of calf skin (equivalent to […] of shampoo per 90.2 sq. in. of human scalp) and a rich lather worked up for 2 minutes. The calf skin was then rinsed in running tap water for 30 seconds with vigorous message to remove all lather. The moist skin was then given a second lather identical to the first and again rinsed as before. After air drying, the calf skins were cut into 2.1 cm discs and placed on agar inoculated with P. Ovale. After 4 days incubation at 27°C, the zones of inhibition size were recorded.

The test system of series [8] is T. interdigitale. Description: Antimicrobial spectrum, MIC, T. interdigitale (Table 3). The series is classed as cell-based, Trichophyton interdigitale ATCC 9533. As to conditions: Trichophyton interdigitale, ATCC9533, read-out: Minimum Inhibitory Concentration, T. interdigitale. As for the experimental part:
as §1

In series [9] the test system is dandruff. To be noted: in words; background; cited from earlier work.
[10] abbreviates: Pityrosporum ovale, agar, 27°C, 4 days.

On to `Oc1ccc(Cl)cc1Sc1cc(Cl)ccc1O` [2,2'-dihydroxy-5.5'-dichlorodiphenyl monosulfide], for which the MIC in series [1] is > 1000 µg/mL.
With `Sc1ccccn1` [2-mercaptopyridine], the MIC in series [1] (setting [10]) was > 1000 µg/mL.
The same measure, in the same setting: the figure for `Sc1ccc2ccccc2n1` [2-mercaptoquinoline] is > 1000 µg/mL.
Still for that read-out and setting: to `O=c1[nH]c2cc(Cl)c(Br)cc2o1` [5-chloro-6-bromobenzoxazo-linone] belongs 1000 µg/mL (≈ 4.02 mM).
In the case of `Oc1cccc2cccnc12` [8-Hydroxyquinoline], in series [1], the MIC is 100 µg/mL (≈ 0.689 mM).
As to `Oc1c(I)cc(I)c2cccnc12` [Diiodohydroxyquinoline], the MIC in series [1] (setting [10]) worked out at 1000 µg/mL (≈ 2.52 mM).
For the compound `Oc1c(Cl)cc(Cl)c(Cl)c1Cc1c(O)c(Cl)cc(Cl)c1Cl` [Hexachlorophene], the MIC in [1] was > 1000 µg/mL.
On to `[O-][n+]1c(S)ccc2ccccc21` [Na MQNO, Sodium Complex Of 2-Mercapto-Quinoline-N-Oxide], for which the MIC is 50 to 60 µg/mL in series [1] (setting [10]); 0.1 µg/mL in series [2]; 10100 µg/mL in [3] (ATCC10196, ATCC 10196, Mycological Agar, 27°C, ten fold dilutions, read-out: Minimum Inhibitory Concentration, Aspergillus oryzae); 0.1 µg/mL in [4] (ATCC6538, ATCC 6538, Nutrient Agar, 37°C, ten fold dilutions, read-out: Minimum Inhibitory Concentration, Staph. aureus).
Consider `[O-][n+]1ccccc1S` [Na PTO, sodium salt of pyridinethione-N-oxide], for which the antimicrobial spectrum result in series [5] is “broad-spectrum antimicrobial agents showing good activity at low concentrations against Gram-positive and negative bacteria, fungi and dermatophytes”. For the same compound, the MIC in series [1] was 7 to 10 µg/mL; in series [3] (ATCC10196, read-out: Minimum Inhibitory Concentration, Aspergillus oryzae) it was 10100 µg/mL; in series [4] (ATCC6538, read-out: Minimum Inhibitory Concentration, Staph. aureus), 0.1 µg/mL.
As to `Cc1cc(O)cc(C)c1Cl` [P-chloro-m-xylenol], in series [1] (setting [10]), the MIC is 1000 µg/mL (≈ 6.39 mM).
Turning to `O=C(Nc1ccc(Cl)c(Cl)c1)c1cc(Cl)cc(Cl)c1O` [Tetrachloro salicyanilide], in series [1] (agar, 27°C, 4 days), the “Minimum Inhibitory Concentration (MIC) against P. Ovale” value worked out at 1000 PPM.
On the same count and under the same terms, to `Oc1c(Cl)cc(Cl)cc1Sc1cc(Cl)cc(Cl)c1O` [Thio bis(dichlorophenol)] belongs > 1000 PPM; to `O=C(Nc1ccc(Br)cc1)c1cc(Br)cc(Br)c1O` [Tribromo salicyanilide], 1000 PPM; to `O=C(Nc1ccc(Cl)cc1)c1cc(Cl)cc(Cl)c1O` [Trichloro salicyanilide], > 1000 PPM.
Same read-out and setting: the figure for `O=C(Nc1ccc(Cl)cc1)Nc1ccc(Cl)c(Cl)c1` [Trichlorocarbanilide] is > 1000 PPM.
As for `C=CCCCCCCCCC(=O)O` [Undecylenic acid], the MIC in series [1] amounted to 1000 µg/mL (≈ 5.43 mM).
Turning to `[O-][n+]1c(S)ccc2ccccc21.[Zn]` [Zn MQNO, Zinc 2-mercaptoquinoline-N-oxide], in series [6], the “solubility relative to ZnPTO” value is “less soluble than ZnPTO”. For the same compound, in series [7] (listed as MONO), the “Zone of Inhibition Against P. Ovale - Calf Skin, 1 Application” value was 0.5 and 1.5 and 1.0; the “Zone of Inhibition Against P. Ovale - Calf Skin, 2 Applications” value is 2.0 and 4.5 and 2.5. The MIC in series [8] stood at 10100 µg/mL.
As for `[O-][n+]1ccccc1[S-].[O-][n+]1ccccc1[S-].[Zn+2]` [Zn PTO, zinc salt of pyridinethione-N-oxide], the antimicrobial spectrum result in [5] is “broad-spectrum antimicrobial agents showing good activity at low concentrations against Gram-positive and negative bacteria, fungi and dermatophytes”. Further, the “Minimum Inhibitory Concentration (MIC) against P. Ovale” value in series [1] (agar, 27°C, 4 days) was 7-10 PPM. Also, in series [7] (listed as Zinc PTO), the “Zone of Inhibition Against P. Ovale - Calf Skin, 1 Application” value is 4.5 and 4.0 and 5.0; the “Zone of Inhibition Against P. Ovale - Calf Skin, 2 Applications” value was 10.0 and 7.0 and 5.0. Besides, in [3] (ATCC 10196, Mycological Agar, 27°C, ten fold dilutions), the “Minimum Inhibitory Concentration, Aspergillus oryzae” value is listed as 10 100 PPM.
On to `[S]` [elemental sulfur], for which the “anti-dandruff activity (prior art agents)” value in [9] was “extremely effective in the control of dandruff”.
On to “N-alkyl-dimethyl-benzyl ammonium chloride”, for which the “Minimum Inhibitory Concentration (MIC) against P. Ovale” value in [1] (agar, 27°C, 4 days) is listed as > 1000 PPM.
For the compound “N-alkyl-dimethyl-ethyl-benzyl ammonium cyclohexyl sulfamate”, in series [1] (agar, 27°C, 4 days), the “Minimum Inhibitory Concentration (MIC) against P. Ovale” value was > 1000 PPM.
Same read-out and setting: the figure for “Sodium salt of sulphosuccinate of undecylenic-monoalkylolamide” is > 1000 PPM.
Same read-out and setting: the figure for Undecen-1-ol is > 1000 PPM.
The same measure, in the same setting: the figure for “m-alkyl-dimethyl-ethyl-benzyl ammonium chloride” is > 1000 PPM.
